Results as given in article PMC5218480 (PLoS ONE, 2017).

Assays:
Test in all cases: HDAC enzyme assay, in vitro biochemical
Conditions in all cases: maximum concentration tested of 20 μM
HDAC5 = molecular target: T1, HDAC5 (Homo sapiens, UniProt Q9UQL6)
T1 construct: purchased BPS Biosciences
Method: (§1) In vitro biochemical assays were performed as described previously. Specifically, compounds were dissolved and diluted in assay buffer (50 mM HEPES, pH 7.4, 100 mM KCl, 0.001% Tween-20, 0.05% BSA, and 20 μM Tris (2-carboxyethyl) phosphine) to 6-fold the final concentration. […] The amount of substrate (acetyl-lysine tripeptide) used for each enzyme was equal to the Michaelis constant (Km), as determined by a titration curve. Substrate was diluted in assay buffer to 6-fold of the final concentration with 0.3 μM sequencing grade trypsin (Sigma-Aldrich). The substrate/trypsin mix was added to the enzyme/compound mix and the plate was shaken for 5 seconds and then placed into a SpectraMax M5 microtiter (Molecular Devices) plate reader. The enzymatic reaction was monitored over 30 minutes for release of […] after deacetylation of the lysine side chain in the peptide substrate, and the linear rate of the reaction was calculated.
(§2) biochemical assay for HDAC4, HDAC5, HDAC6, HDAC7, HDAC8, HDAC9 inhibition by ACY-1035.
(§3) (1 picture or pasted object on this page, not shown here)

HDAC9 = molecular target: T2, HDAC9 (Homo sapiens, UniProt Q9UKV0)
T2 construct: purchased BPS Biosciences
T2 sequence (Q9UKV0 whole entry): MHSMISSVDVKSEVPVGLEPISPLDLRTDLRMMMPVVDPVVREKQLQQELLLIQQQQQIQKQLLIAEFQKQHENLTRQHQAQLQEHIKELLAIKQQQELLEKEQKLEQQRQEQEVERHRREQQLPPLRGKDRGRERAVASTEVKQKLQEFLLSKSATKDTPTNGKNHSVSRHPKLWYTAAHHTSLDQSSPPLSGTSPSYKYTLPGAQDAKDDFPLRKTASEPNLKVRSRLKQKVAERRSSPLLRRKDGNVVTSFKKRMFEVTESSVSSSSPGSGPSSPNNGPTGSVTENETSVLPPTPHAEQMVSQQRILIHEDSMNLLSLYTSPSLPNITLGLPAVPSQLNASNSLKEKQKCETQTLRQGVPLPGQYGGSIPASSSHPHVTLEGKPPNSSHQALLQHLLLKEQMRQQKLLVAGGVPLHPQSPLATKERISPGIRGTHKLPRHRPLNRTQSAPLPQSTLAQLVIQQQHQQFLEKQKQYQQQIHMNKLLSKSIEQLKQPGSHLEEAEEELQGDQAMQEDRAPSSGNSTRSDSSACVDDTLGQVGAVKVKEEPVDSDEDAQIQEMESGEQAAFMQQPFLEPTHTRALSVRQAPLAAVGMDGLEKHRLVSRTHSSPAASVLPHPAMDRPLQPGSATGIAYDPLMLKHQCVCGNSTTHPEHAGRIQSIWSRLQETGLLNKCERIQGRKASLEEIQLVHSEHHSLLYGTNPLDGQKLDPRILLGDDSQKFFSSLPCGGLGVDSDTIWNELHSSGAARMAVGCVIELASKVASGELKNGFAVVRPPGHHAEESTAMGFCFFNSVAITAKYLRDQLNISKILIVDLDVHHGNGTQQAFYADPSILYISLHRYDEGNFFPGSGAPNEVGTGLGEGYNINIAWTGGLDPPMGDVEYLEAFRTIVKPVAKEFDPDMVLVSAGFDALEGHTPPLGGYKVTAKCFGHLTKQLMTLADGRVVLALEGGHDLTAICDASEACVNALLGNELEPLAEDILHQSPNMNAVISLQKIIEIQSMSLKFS
Method: as §1, §2, §3

HDAC6 = molecular target: T3, HDAC6 (Homo sapiens, UniProt Q9UBN7)
T3 construct: purchased BPS Biosciences
T3 sequence (Q9UBN7 1-1215): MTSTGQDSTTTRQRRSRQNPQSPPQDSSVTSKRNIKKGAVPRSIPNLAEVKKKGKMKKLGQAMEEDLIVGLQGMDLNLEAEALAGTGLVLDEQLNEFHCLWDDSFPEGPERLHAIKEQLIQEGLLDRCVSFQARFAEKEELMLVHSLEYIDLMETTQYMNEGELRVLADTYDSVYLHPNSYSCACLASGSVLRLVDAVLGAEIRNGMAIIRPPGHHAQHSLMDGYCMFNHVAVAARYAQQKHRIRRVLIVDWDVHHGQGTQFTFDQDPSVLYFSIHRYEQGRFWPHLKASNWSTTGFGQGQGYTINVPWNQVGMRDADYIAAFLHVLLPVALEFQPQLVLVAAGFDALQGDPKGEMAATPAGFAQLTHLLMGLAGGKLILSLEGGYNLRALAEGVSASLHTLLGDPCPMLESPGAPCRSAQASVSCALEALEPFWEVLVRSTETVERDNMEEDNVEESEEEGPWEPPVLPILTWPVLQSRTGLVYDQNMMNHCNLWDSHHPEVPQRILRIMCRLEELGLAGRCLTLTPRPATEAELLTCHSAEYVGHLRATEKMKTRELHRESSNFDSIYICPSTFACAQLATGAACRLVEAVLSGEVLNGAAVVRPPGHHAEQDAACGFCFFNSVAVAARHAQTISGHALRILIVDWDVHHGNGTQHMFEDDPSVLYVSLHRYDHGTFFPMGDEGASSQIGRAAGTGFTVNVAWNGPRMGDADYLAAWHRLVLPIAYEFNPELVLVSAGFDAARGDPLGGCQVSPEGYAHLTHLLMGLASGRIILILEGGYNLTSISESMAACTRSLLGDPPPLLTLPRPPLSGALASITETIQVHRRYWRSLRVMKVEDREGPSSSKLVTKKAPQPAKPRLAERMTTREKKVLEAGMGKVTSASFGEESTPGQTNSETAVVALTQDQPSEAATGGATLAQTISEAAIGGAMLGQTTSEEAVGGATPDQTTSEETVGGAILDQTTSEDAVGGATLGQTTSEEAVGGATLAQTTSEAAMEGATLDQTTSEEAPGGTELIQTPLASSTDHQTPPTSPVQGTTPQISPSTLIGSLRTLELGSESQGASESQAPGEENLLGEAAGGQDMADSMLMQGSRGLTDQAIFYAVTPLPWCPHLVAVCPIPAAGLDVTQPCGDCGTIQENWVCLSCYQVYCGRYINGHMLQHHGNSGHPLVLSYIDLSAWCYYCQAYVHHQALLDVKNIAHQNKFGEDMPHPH
Method: as §1, §2, §3

HDAC7 = molecular target: T4, HDAC7 (Homo sapiens, UniProt Q8WUI4)
T4 construct: purchased BPS Biosciences
T4 sequence (Q8WUI4 1-952): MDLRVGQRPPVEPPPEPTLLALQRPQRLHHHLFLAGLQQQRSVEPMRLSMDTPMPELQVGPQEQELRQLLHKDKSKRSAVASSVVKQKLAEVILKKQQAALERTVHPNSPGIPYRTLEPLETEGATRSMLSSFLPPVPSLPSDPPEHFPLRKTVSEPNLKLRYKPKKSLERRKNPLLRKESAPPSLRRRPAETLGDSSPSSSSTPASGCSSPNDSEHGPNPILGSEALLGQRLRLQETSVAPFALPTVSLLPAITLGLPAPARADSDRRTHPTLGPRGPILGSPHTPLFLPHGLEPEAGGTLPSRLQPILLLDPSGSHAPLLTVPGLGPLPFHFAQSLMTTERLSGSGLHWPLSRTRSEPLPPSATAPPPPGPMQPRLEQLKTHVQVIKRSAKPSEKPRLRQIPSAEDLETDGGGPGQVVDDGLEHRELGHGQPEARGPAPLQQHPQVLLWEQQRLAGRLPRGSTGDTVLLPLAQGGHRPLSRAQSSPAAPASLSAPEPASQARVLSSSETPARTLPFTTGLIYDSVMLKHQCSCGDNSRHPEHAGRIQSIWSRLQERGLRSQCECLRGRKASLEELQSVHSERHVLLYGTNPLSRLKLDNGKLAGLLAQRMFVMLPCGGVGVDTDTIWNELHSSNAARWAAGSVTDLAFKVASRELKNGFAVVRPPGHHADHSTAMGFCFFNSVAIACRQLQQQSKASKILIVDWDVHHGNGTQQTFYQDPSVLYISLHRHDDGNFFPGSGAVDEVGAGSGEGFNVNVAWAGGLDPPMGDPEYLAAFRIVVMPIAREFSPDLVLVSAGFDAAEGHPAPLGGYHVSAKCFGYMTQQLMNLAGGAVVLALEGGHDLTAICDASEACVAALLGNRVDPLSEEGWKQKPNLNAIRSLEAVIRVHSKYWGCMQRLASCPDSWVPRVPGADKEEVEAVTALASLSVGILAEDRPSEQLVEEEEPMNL
Method: as §1, §2, §3

T1 sequence (Q9UQL6 whole entry): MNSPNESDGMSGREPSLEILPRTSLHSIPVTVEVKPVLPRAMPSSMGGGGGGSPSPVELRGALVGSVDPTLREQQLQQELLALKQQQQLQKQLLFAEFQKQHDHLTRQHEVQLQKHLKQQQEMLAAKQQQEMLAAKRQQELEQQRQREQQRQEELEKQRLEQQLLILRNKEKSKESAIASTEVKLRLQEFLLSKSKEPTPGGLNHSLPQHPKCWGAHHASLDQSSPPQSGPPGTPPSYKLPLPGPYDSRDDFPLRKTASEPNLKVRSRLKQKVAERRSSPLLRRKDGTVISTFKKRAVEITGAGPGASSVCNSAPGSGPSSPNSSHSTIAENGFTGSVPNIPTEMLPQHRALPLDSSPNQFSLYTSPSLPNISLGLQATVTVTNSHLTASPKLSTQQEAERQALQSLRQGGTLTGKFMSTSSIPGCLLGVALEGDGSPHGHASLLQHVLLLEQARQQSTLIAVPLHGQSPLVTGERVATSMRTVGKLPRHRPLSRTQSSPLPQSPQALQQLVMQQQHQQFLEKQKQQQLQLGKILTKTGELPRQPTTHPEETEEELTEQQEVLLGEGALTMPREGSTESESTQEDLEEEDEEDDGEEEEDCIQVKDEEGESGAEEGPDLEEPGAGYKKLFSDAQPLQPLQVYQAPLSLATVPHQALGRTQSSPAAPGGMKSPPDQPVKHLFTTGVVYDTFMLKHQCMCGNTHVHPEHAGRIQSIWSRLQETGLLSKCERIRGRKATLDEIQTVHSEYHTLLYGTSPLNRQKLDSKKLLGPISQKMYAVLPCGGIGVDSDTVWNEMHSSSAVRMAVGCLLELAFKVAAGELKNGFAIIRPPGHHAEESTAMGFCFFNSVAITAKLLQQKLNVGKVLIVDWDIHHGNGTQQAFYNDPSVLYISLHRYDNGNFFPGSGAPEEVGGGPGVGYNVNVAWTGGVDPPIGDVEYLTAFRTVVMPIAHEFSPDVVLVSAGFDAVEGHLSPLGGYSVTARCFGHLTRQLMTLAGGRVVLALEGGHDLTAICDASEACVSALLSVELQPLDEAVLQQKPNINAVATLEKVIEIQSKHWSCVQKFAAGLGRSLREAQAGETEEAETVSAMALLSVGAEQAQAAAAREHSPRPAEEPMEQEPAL

Nc1ccc(-c2cccs2)cc1NC(=O)c1ccc2c(c1)cc(C1CC1)n2CCN1CCOCC1 [ACY-1035]
did not inhibit: inhibition of HDAC5 (HDAC5) | inhibition of HDAC9 (HDAC9) | inhibition of HDAC6 (HDAC6) | inhibition of HDAC7 (HDAC7)
